Laboratory results reported in patent US8445636B2, “Antimicrobial and anticancer lipopeptides” (Yeda Research & Development Co. Ltd., priority 2003, dated 2013).
Converted amounts (≈) assume the structure as drawn. Like-named read-outs stand apart in the source and are kept apart here. Non-standard residues stand in square brackets, D forms with d. Residues, ends and D or L forms follow the SMILES beside them. *: point of attachment. Palmitoyl = CCCCCCCCCCCCCCCC(=O)*; Undecanoyl = CCCCCCCCCCC(=O)*

Assays:
Assay type in all cases: cell-based
[1] = test system: Candida albicans ATCC 10231; assay: microbe, parasite or virus in culture; conditions: for MIC: read-out: Minimal Inhibitory Concentration, Candida Albicans (ATCC 10231)
Method in brief: (§1)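 MIC = lowest concentration giving 100% growth inhibition by A620 after 24-48 h at 35 °C with agitation. Inoculum: 1×10^4 CFU/ml (pre-mix) in RPMI 1640/0.165 M MOPS; pH 7.4 by default, 5.5 where noted. Peptide as twofold dilution series in water.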

[2] = test system: Cryptococcus neoformans ATCC MYA-422; assay: microbe, parasite or virus in culture
[3] = test system: Aspergillus niger ATCC 9642
Method: The antifungal activity of the lipopeptides was examined in sterile 96-well plates (Nunc F96 microtiter plates) in a final volume of 200 μL as follows: 100 µl of a suspension containing fungi at a concentration of 1×10^4 Colony-Forming Units (CFU)/ml in culture medium (RPMI 1640, 0.165 M MOPS with L-glutamine, without NaHCO3) at pH 7.4 or pH 5.5 (adjustment of the pH was done by diluted solutions of HCl and NaOH) were added to 100 μl of water containing the peptide in serial 2-fold dilutions in water. The fungi were incubated in the presence of the lipopeptides for 24-48 h at 35° C. in a Binder KB115 incubator under agitation. Growth inhibition was determined by measuring the absorbance at 620 nm with a Microplate autoreader E1309 (Bio-Tek Instruments). Antifungal activity is expressed as the minimal inhibitory concentration (MIC), the concentration at which 100% inhibition of fungi growth was observed after the incubation time mentioned above. The fungi used were: Aspergillus niger ATCC 9642, Candida albicans ATCC 10231 and Cryptococcus neoformans ATCC 66031. If not indicated otherwise, the fungi growth was detected at pH 7.4.

[4] = test system: Aspergillus fumigatus ATCC 26430; assay: microbe, parasite or virus in culture
[5] = test system: Staphylococcus aureus ATCC 6538P
Method in brief: (§2)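 Lipopeptides were serially diluted 2-fold in water and combined with an equal volume of bacterial suspension (1×10^6 CFU/ml) in LB medium, normally at pH 7.4. Plates were incubated 18-20 h at 37° C, absorbance at 600 nm was measured, and the MIC was taken as the concentration fully inhibiting growth.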

[6] = test system: Acinetobacter baumannii ATCC 19606
Method in brief: as §2

[7] = test system: Pseudomonas aeruginosa ATCC 27853
Method in brief: as §2

[8] = test system: Escherichia coli ATCC 25922
Method in brief: as §2

B. subtilis ATCC 6051 = test system: B. subtilis ATCC 6051
[9] = test system: Aspergillus flavus ATCC 9643
[10] = test system: Cryptococcus neoformans ATCC 66031; assay: microbe, parasite or virus in culture; conditions: Table 10; pH 7.4
Method in brief: as §1

[11] = test system: human red blood cells (hRBC); assay: Hemolytic activity, release of hemoglobin at 540 nm
Method: Fresh human red blood cells (hRBC) with EDTA were rinsed 3 times with PBS (35 mM phosphate buffer/0.15 M NaCl, pH 7.3) by centrifugation for 10 min at 800 g and resuspended in PBS. Peptides dissolved in PBS were then added to 50 μl of a solution of the stock hRBC in PBS to reach a final volume of 100 μl (final erythrocyte concentration, 4% v/v). The resulting suspension was incubated under agitation for 60 min at 37° C. The samples were then centrifuged at 800×g for 10 min. Release of hemoglobin was monitored by measuring the absorbance of the supernatant at 540 nm. Controls for zero hemolysis (blank) and 100% hemolysis consisted of hRBC suspended in PBS and Triton 1%, respectively.

[12] = test system: Enterobacter cloacae ATCC 49141; conditions: Table 4; pH 7.4
Method in brief: as §2

[13] = test system: Enterococcus faecalis ATCC 29212; conditions: Table 4; pH 7.4
Method in brief: as §2

[14] = Table 14, lipopeptides vs parent peptides, pH 7.4
[15] = Table 8, lipopeptides vs parent peptides, pH 7.4

| Compound | MIC ([1]; ATCC 10231, pH 7.4) | Minimal Inhibitory Concentration, Cryptococcus neoformans (ATCC MYA-422) ([2]; ATCC MYA-422, pH 7.4) | Minimal Inhibitory Concentration, Aspergillus niger (ATCC 9642) ([3]; ATCC 9642, pH 7.4) | Minimal Inhibitory Concentration, Aspergillus fumigatus (ATCC 26430) ([4]; ATCC 26430, pH 7.4) | Minimal Inhibitory Concentration, S. aureus ATCC 6538P ([5]; ATCC 6538, pH 7.4) | Minimal Inhibitory Concentration, A. baumannii ATCC 19606 ([6]; ATCC 19606, pH 7.4) | Minimal Inhibitory Concentration, P. aeruginosa ATCC 27853 ([7]; ATCC 27853, pH 7.4) | Minimal Inhibitory Concentration, E. coli (ATCC 25922) ([8]; ATCC 25922, pH 7.4) | Minimal Inhibitory Concentration, B. subtilis (ATCC 6051) (B. subtilis ATCC 6051; ATCC 6051, pH 7.4) | Minimal Inhibitory Concentration, Aspergillus flavus (ATCC 9643) ([9]; ATCC 9643, pH 7.4) | further results |
| --- | --- | --- | --- | --- | --- | --- | --- | --- | --- | --- | --- |
| C[C@H](NC(=O)[C@H](C)NC(=O)[C@H](CCCCN)NC(=O)[C@@H](C)NC(=O)[C@@H](C)NC(=O)[C@H](C)NC(=O)[C@@H](N)CCCCN)C(=O)N[C@H](C)C(=O)N[C@@H](CCCCN)C(=O)N[C@H](C)C(=O)N[C@@H](C)C(=O)N[C@@H](CCCCN)C(N)=O [DK4A8, reference compound] (H-KA[dA][dA]KAA[dA]K[dA]AK-NH2; N-terminus assumed) |  |  |  |  |  |  |  |  |  |  | MIC [1, 14]: >100 µM; Minimal Inhibitory Concentration, Cryptococcus neoformans (ATCC MYA-422) [2, 14]: >100 µM; Minimal Inhibitory Concentration, Aspergillus niger (ATCC 9642) [3, 14]: >100 µM; Minimal Inhibitory Concentration, Aspergillus fumigatus (ATCC 26430) [4, 14]: >100 µM; Minimal Inhibitory Concentration, S. aureus ATCC 6538P [5, 15]: >100 µM; Minimal Inhibitory Concentration, A. baumannii ATCC 19606 [6, 15]: >100 µM; Minimal Inhibitory Concentration, P. aeruginosa ATCC 27853 [7, 15]: >100 µM; Minimal Inhibitory Concentration, E. coli (ATCC 25922) [8, 15]: >100 µM; Minimal Inhibitory Concentration, B. subtilis (ATCC 6051) (B. subtilis ATCC 6051; [15]): >100 µM; Minimal Inhibitory Concentration, Aspergillus flavus (ATCC 9643) [9, 14]: >100 µM |
| CCCCCCCCCCCCCCCC(=O)N[C@@H](CCCCN)C(=O)N[C@@H](C)C(=O)N[C@@H](C)C(=O)N[C@@H](C)C(=O)N[C@@H](CCCCN)C(=O)N[C@@H](C)C(=O)N[C@@H](C)C(=O)N[C@@H](C)C(=O)N[C@@H](CCCCN)C(=O)N[C@@H](C)C(=O)N[C@@H](C)C(=O)N[C@@H](CCCCN)C(N)=O [lipopeptide 6, (CH3—(CH2)14—CO—)-Lys-Ala-Ala-Ala-Lys-Ala-Ala-Ala-Lys-Ala-Ala-Lys-NH2] (Palmitoyl-KAAAKAAAKAAK-NH2) |  |  |  |  |  |  |  |  |  |  | Minimal Inhibitory Concentration, C. albicans ATCC 10231 ([1]; Table 10, pH 7.4): 3.125 µM; Minimal Inhibitory Concentration, C. neoformans ATCC 66031 [10]: 1.56 µM; hemolytic activity ([11]; at concentrations lower than 12 μM, human red blood cells (FIGS. 1-5)): do not exhibit significant hemolytic activity; Minimal Inhibitory Concentration, A. fumigatus ATCC 26430 ([4]; Table 10, pH 7.4): 12.5 µM; Minimal Inhibitory Concentration, S. aureus ([5]; Table 4, pH 7.4): 50 µM; Minimal Inhibitory Concentration, A. Baumaannii ([6]; Table 4, pH 7.4): 25 µM; Minimal Inhibitory Concentration, P. Aeruginosa ([7]; Table 4, pH 7.4): 25 µM; Minimal Inhibitory Concentration, E. cloacae [12]: 100 µM; Minimal Inhibitory Concentration, E. coli ([8]; Table 4, pH 7.4): 50 µM; Minimal Inhibitory Concentration, E. faecalis [13]: 50 µM |
| CC(C)[C@H](NC(=O)[C@H](CCCCN)NC(=O)[C@H](NC(=O)[C@H](NC(=O)[C@@H](NC(=O)[C@@H](N)CCCCN)C(C)C)C(C)C)C(C)C)C(=O)N[C@H](C(=O)N[C@@H](C(=O)N[C@@H](CCCCN)C(=O)N[C@@H](C(=O)N[C@H](C(=O)N[C@@H](CCCCN)C(N)=O)C(C)C)C(C)C)C(C)C)C(C)C [DK4V8, reference compound] (H-KV[dV][dV]KVV[dV]K[dV]VK-NH2; N-terminus assumed) | >100 µM | 50 µM | >100 µM | >100 µM | >100 µM | >100 µM | >100 µM | >100 µM | 60 µM | >100 µM |  |
| CCCCCCCCCCC(=O)NCC(=O)N[C@H](C(=O)NCC(=O)N[C@@H](CCCCN)C(=O)N[C@@H](Cc1ccccc1)C(=O)N[C@H](CC(C)C)C(=O)N[C@@H](Cc1c[nH]cn1)C(=O)N[C@@H](CO)C(=O)N[C@@H](C)C(=O)N[C@H](CCCCN)C(=O)N[C@@H](CCCCN)C(=O)N[C@@H](Cc1c[nH]c2ccccc12)C(=O)NCC(=O)N[C@@H](CCCCN)C(=O)N[C@@H](C)C(=O)N[C@H](Cc1ccccc1)C(=O)N[C@H](C(=O)NCC(=O)N[C@H](CCC(=O)O)C(=O)N[C@H](C(=O)N[C@@H](CCSC)C(=O)N[C@@H](CC(N)=O)C(=O)N[C@@H](CO)C(N)=O)[C@@H](C)CC)C(C)C)[C@@H](C)CC [[D]4magainin-UA] (Undecanoyl-GIGKF[dL]HSA[dK]KWGKA[dF]VG[dE]IMNS-NH2) |  |  |  |  |  |  |  |  |  |  | MIC ([1]; ATCC 10231): >50 µM; MIC ([2]; Table 17, D-magainin analog, mean of 3 experiments, standard deviation of 25%, read-out: Minimal Inhibitory Concentration, Cyrptococcus neoformans (ATCC MYA-422)): 6.25 µM (≈ 16.7 µg/mL); % of Hemolytic activity at maximal MIC ([11]; human): 2%; Minimal Inhibitory Concentration, Aspergillus fumigatus (ATCC 26430) ([4]; ATCC 26430): >50 µM; Minimal Inhibitory Concentration, S. aureus ATCC 6538P ([5]; ATCC 6538): 50 µM; Minimal Inhibitory Concentration, P. aeruginosa ATCC 27853 ([7]; ATCC 27853): 50 µM; Minimal Inhibitory Concentration, E. coli (ATCC 25922) ([8]; ATCC 25922): >50 µM; Minimal Inhibitory Concentration, B. subtilis (ATCC 6051) (B. subtilis ATCC 6051; ATCC 6051): 6.25 µM |

The next lines start with results.

| MIC ([1]; ATCC 10231, pH 7.4) | Compound | Minimal Inhibitory Concentration, Cryptococcus neoformans (ATCC MYA-422) ([2]; ATCC MYA-422, pH 7.4) | Minimal Inhibitory Concentration, Aspergillus niger (ATCC 9642) ([3]; ATCC 9642, pH 7.4) | Minimal Inhibitory Concentration, Aspergillus fumigatus (ATCC 26430) ([4]; ATCC 26430, pH 7.4) | Minimal Inhibitory Concentration, S. aureus ATCC 6538P ([5]; ATCC 6538, pH 7.4) | Minimal Inhibitory Concentration, A. baumannii ATCC 19606 ([6]; ATCC 19606, pH 7.4) | Minimal Inhibitory Concentration, P. aeruginosa ATCC 27853 ([7]; ATCC 27853, pH 7.4) | Minimal Inhibitory Concentration, E. coli (ATCC 25922) ([8]; ATCC 25922, pH 7.4) | Minimal Inhibitory Concentration, B. subtilis (ATCC 6051) (B. subtilis ATCC 6051; ATCC 6051, pH 7.4) | Minimal Inhibitory Concentration, Aspergillus flavus (ATCC 9643) ([9]; ATCC 9643, pH 7.4) | further results |
| --- | --- | --- | --- | --- | --- | --- | --- | --- | --- | --- | --- |
| 3.125 µM (≈ 4.88 µg/mL) | CCCCCCCCCCCCCCCC(=O)N[C@@H](CCCCN)C(=O)N[C@H](C(=O)N[C@@H](C(=O)N[C@@H](C(=O)N[C@@H](CCCCN)C(=O)N[C@H](C(=O)N[C@H](C(=O)N[C@@H](C(=O)N[C@@H](CCCCN)C(=O)N[C@@H](C(=O)N[C@H](C(=O)N[C@@H](CCCCN)C(N)=O)C(C)C)C(C)C)C(C)C)C(C)C)C(C)C)C(C)C)C(C)C)C(C)C [lipopeptide 7, (CH3—(CH2)14—CO—)-Lys-Val-D-Val-D-Val-Lys-Val-Val-D-Val-Lys-D-Val-Val-Lys-NH2] (Palmitoyl-KV[dV][dV]KVV[dV]K[dV]VK-NH2) | 3.125 µM | >100 µM | >100 µM | >100 µM | >100 µM | >100 µM | >100 µM | >100 µM | >100 µM |  |
| >100 µM | NCCCC[C@@H](N)C(=O)NCC(=O)NCC(=O)NCC(=O)N[C@H](CCCCN)C(=O)NCC(=O)NCC(=O)NCC(=O)N[C@H](CCCCN)C(=O)NCC(=O)NCC(=O)N[C@H](CCCCN)C(N)=O [DK4G8, reference compound] (H-[dK]GGG[dK]GGG[dK]GG[dK]-NH2; N-terminus assumed) | >100 µM | >100 µM | >100 µM | >100 µM | >100 µM | >100 µM | >100 µM | >100 µM | >100 µM |  |
